Laboratory results: patent publication US7345049B2, “Phenylalanine derivatives” (Ajinomoto Co., Inc., priority 2003, dated 2008)
Structures can show the parent of a compound that is named as a salt.

What follows are molecules tested against T1, VCAM-1/α4β1 integrin binding (Homo sapiens, UniProt P05556+P13612) (assay: Assay of antagonistic activity to VCAM-1/α4β1 integrin binding under the existence of blood serum (Jurkat cell adhesion to VCAM-1/Fc)). Settings: Jurkat cells, recombinant human VCAM-1/Fc, 50% human blood serum.
T1 construct: Jurkat (ATCC TIB-152), known to express integrin α4β1; endogenous in cells; host or cells: Jurkat (ATCC TIB-152)
T1 sequence (P13612 34-1032): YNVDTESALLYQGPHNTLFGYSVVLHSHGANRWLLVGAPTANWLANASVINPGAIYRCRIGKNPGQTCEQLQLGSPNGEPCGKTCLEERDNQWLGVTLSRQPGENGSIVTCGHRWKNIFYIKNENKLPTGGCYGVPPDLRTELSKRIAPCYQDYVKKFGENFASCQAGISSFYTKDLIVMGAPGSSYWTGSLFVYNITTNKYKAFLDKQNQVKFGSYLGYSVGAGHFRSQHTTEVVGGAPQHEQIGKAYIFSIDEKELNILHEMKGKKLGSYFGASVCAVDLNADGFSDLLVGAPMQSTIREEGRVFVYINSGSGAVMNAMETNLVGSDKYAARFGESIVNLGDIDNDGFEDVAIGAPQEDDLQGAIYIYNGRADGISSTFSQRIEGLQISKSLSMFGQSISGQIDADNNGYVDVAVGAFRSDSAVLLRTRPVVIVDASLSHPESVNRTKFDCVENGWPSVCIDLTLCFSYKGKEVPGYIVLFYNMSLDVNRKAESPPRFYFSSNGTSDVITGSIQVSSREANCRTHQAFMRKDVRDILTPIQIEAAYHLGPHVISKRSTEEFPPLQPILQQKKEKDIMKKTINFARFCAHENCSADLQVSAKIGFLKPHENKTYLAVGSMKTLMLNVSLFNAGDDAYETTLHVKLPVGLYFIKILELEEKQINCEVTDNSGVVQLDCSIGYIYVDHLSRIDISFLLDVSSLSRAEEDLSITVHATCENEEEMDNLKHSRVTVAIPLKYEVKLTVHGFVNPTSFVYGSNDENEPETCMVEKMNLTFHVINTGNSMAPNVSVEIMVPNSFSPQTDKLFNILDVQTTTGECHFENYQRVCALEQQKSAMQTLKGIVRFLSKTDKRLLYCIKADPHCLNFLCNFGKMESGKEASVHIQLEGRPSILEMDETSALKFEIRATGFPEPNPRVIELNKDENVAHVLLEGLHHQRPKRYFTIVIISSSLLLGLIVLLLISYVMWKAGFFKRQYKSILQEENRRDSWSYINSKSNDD
T1 sequence (P05556 21-798): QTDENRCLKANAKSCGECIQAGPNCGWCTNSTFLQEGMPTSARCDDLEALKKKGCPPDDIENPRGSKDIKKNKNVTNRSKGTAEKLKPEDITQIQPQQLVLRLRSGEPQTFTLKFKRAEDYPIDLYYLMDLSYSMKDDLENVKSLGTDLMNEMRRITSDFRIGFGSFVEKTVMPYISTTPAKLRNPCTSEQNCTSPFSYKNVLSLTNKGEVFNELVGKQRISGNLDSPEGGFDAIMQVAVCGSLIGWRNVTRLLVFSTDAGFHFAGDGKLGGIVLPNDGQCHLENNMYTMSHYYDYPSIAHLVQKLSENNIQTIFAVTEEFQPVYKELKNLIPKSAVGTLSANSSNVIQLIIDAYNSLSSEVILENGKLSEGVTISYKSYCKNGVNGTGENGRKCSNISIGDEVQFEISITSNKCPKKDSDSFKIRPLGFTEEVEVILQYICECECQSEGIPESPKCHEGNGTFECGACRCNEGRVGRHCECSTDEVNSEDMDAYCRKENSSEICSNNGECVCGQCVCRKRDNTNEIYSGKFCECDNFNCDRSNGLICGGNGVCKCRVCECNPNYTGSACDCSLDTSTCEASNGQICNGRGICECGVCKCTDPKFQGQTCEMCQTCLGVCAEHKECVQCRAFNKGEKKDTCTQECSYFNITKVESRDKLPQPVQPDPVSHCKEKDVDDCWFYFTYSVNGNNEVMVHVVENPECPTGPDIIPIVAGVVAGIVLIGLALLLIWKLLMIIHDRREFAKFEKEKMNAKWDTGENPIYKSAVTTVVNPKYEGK
Type: cell-based
Procedure: Assay of Antagonistic Activity to VCAM-1/α4β1 Integrin Binding Under the Existence of Blood Serum
The capacity of a test substance antagonistic to the binding of cell strain of human T cells, Jurkat (ATCC TIB-152), known to express integrin α4β1, to VCAM-1 was determined.
Fifty μl/well of a solution (500 ng/ml) of recombinant human VCAM-1/Fc (R & D systems) diluted with buffer A (0.1 M NaHCO3, pH 9.6) was added to a 96-well microtiter plate (Nunc Maxisorp). After the incubation at 4° C. overnight and washing once with PBS, a buffer (buffer B) obtained by diluting Block Ace (Snow Brand Milk Products Co., Ltd.) with PBS to ½ concentration was added in an amount of 150 μl/well. After the incubation at room temperature for 2 hours, buffer B was removed and the plate was washed with PBS once.
Jurkat cells were washed with Dulbecco modified Eagle medium (SIGMA, hereinafter referred to as “DMEM”) once. Then, the cells were again suspended in a binding buffer (DMEM containing 20 mM HEPES, 0.1% BSA, 2 mM MnCl2 and 50% human blood serum (Sigma)) to become 1×10^6 cells/mL.
Sixty μl of a test substance of various concentrations obtained by the dilution with the binding buffer was added to a round-bottom, 96-well plate (IWAKI). Immediately thereafter, 60 μl of the Jurkat cells (1×10^6 cells/ml) were added thereto and shaken on a plate shaker (IKA-Labortechnik, IKA-SCHUTTLER MTS-4) at 1000 rpm for 10 seconds. In 120 μL of the cell suspension to which the test substance was added, each 100 μL thereof was transferred on the VCAM-1/Fc-coated plate and incubated in dark place at room temperature for 60 minutes. After the shaking on the plate shaker at 1000 rpm for 30 seconds, the solution was immediately removed. Then, the unbound cells were removed by washing them with PBS once. A buffer C (PBS containing 0.82% Triton X-100) was added to the plate in an amount of 70 μL/well. After the shaking on the plate shaker at 1000 rpm for 5 minutes, the bound Jurkat cells were lysed. After centrifuging the cells on a plate centrifuge (SIGMA 4-15C) at room temperature at 2500 rpm for 5 minutes, 50 μL of supernatant thereof was transferred to a 96-well microtiter plate (Nunc Maxisorp). Each 50 μL of Substrate Buffer (Promega, CytoTox 96 Non-Radioactive Cytotoxicity Assay) was added thereto, shaken on a plate shaker at 1000 rpm for 10 seconds and reacted in dark place at room temperature for 30 minutes. Then, each 50 μL of Stop Solution (Promega, CytoTox 96 Non-Radioactive Cytotoxicity Assay) was added thereto and shaken on a plate shaker at 1000 rpm for 10 seconds. […] The absorbance thus obtained detects an activity of lactate dehydrogenase (LDH) dissolved in the supernatant of each well. Namely, the absorbance is proportional to the number of remaining Jurkat cells on the plate via the binding to VCAM-1. The test was conducted in duplicate and the binding rate of each test substance in various concentrations was determined while the absorbance of the test substance-free well was determined to be 100% and the absorbance of the Jurkat-cell-free well was determined to be 0%. The concentration for the 50% inhibition of binding, IC50, was calculated.

Molecule | IC50 [nM]
CN(C)CCN(C)c1cc2c(cc1F)c(=O)n(-c1ccc(C[C@H](NC(=O)c3c(Cl)cccc3Cl)C(=O)O)cc1)c(=O)n2C [Example 13] | 5.5
CCN(CC)CCN(C)c1ccc2c(c1)c(=O)n(-c1ccc(C[C@H](NC(=O)c3c(Cl)cccc3Cl)C(=O)O)cc1)c(=O)n2C [Example 5] | 10.8
Cn1c(=O)n(-c2ccc(C[C@H](NC(=O)c3c(Cl)cccc3Cl)C(=O)O)cc2)c(=O)c2cc(CN3CCCCC3)ccc21 [Example 57] | 16.6
Cn1c(=O)n(-c2ccc(C[C@H](NC(=O)c3c(Cl)cccc3Cl)C(=O)O)cc2)c(=O)c2cnccc21 [Example 64] | 12.3
Cn1c(=O)n(-c2ccc(C[C@H](NC(=O)c3c(Cl)cccc3Cl)C(=O)O)cc2)c(=O)c2ccc(CN3CCCC3)cc21 [Example 35, N-(2,6-dichlorobenzoyl)-4-[1-methyl-7-(pyrrolidine-1-ylmethyl)-2,4-quinazoline-dione-3-yl]-L-phenylalanine trifluoroacetate] | 7.9
CN1CCN(C)c2cc3c(cc21)c(=O)n(-c1ccc(C[C@H](NC(=O)c2c(Cl)cccc2Cl)C(=O)O)cc1)c(=O)n3C [Example 17] | 22.9
Cn1c(=O)n(-c2ccc(C[C@H](NC(=O)c3c(Cl)cccc3Cl)C(=O)O)cc2)c(=O)c2cc(CO)ccc21 [Example 60] | 25.5
CCNc1ccc2c(=O)n(-c3ccc(C[C@H](NC(=O)c4c(Cl)cccc4Cl)C(=O)O)cc3)c(=O)n(C)c2c1 [Example 19] | 23.5
Cn1c(=O)n(-c2ccc(C[C@H](NC(=O)c3c(Cl)cccc3Cl)C(=O)O)cc2)c(=O)c2cc(CN3CCOCC3)ccc21 [Example 53] | 23.3
Cn1c(=O)n(-c2ccc(C[C@H](NC(=O)c3c(Cl)cccc3Cl)C(=O)O)cc2)c(=O)c2cc(CN3CCCC3)ccc21 [Example 56] | 13.1
COCc1ccc2c(=O)n(-c3ccc(C[C@H](NC(=O)c4c(Cl)cccc4Cl)C(=O)O)cc3)c(=O)n(C)c2c1 [Example 63] | 10.8
CCN(CC)CCN(C)c1cc2c(cc1F)c(=O)n(-c1ccc(C[C@H](NC(=O)c3c(Cl)cccc3Cl)C(=O)O)cc1)c(=O)n2C [Example 14] | 5.8
CCCNCc1ccc2c(c1)c(=O)n(-c1ccc(C[C@H](NC(=O)c3c(Cl)cccc3Cl)C(=O)O)cc1)c(=O)n2C [Example 98] | 18.1
Cn1c(=O)n(-c2ccc(C[C@H](NC(=O)c3c(Cl)cccc3Cl)C(=O)O)cc2)c(=O)c2cc(S(C)(=O)=O)ccc21 [Example 38, N-(2,6-dichlorobenzoyl)-4-[1-methyl-6-(methylsulfonyl)-2,4-quinazoline-dione-3-yl]-L-phenylalanine] | 12.4
Cn1c(=O)n(-c2ccc(C[C@H](NC(=O)c3c(Cl)cccc3Cl)C(=O)O)cc2)c(=O)c2cc(C(N)=O)ccc21 [Example 50] | 15.4
CN(C)C1CCN(c2ccc3c(c2)c(=O)n(-c2ccc(C[C@H](NC(=O)c4c(Cl)cccc4Cl)C(=O)O)cc2)c(=O)n3C)C1 (stereo partly drawn) [Example 6] | 8.9
N-(2,6-dichlorobenzoyl)-4-[6-((2S)-2-aminopropoxy)-1-methyl-2,4-quinazoline-dione-3-yl]-L-phenylalanine isopropylester [Example 141] | 12.2
CN(C)CCOc1ccc2c(c1)c(=O)n(-c1ccc(C[C@H](NC(=O)c3c(Cl)cccc3Cl)C(=O)O)cc1)c(=O)n2C [Example 142, N-(2,6-dichlorobenzoyl)-4-[6-(2-dimethylaminoethoxy)-1-methyl-2,4-quinazoline-dione-3-yl]-L-phenylalanine] | 14.7
COCCNc1ccc2c(c1)c(=O)n(-c1ccc(C[C@H](NC(=O)c3c(Cl)cccc3Cl)C(=O)O)cc1)c(=O)n2C [Example 10] | 15.5
Cn1c(=O)n(-c2ccc(CC(NC(=O)c3c(Cl)cccc3Cl)C(=O)O)cc2)c(=O)c2cc(N3CCOCC3)ccc21 (stereo not drawn) [Example 1] | 1.7
Cn1ncc2c(=O)n(-c3ccc(C[C@H](NC(=O)c4c(Cl)cccc4Cl)C(=O)O)cc3)c(=O)n(C)c21 [Example 18] | 11.7
CCNCc1ccc2c(=O)n(-c3ccc(C[C@H](NC(=O)c4c(Cl)cccc4Cl)C(=O)O)cc3)c(=O)n(C)c2c1 [Example 143, N-(2,6-dichlorobenzoyl)-4-[7-ethylaminomethyl-1-methyl-2,4-quinazoline-dione-3-yl]-L-phenylalanine] | 7
CN1CCN(c2ccc3c(c2)c(=O)n(-c2ccc(C[C@H](NC(=O)c4c(Cl)cccc4Cl)C(=O)O)cc2)c(=O)n3C)CC1 [Example 2] | 22.9
Cn1c(=O)n(-c2ccc(C[C@H](NC(=O)c3c(Cl)cccc3Cl)C(=O)O)cc2)c(=O)c2ncccc21 [Example 47, N-(2,6-dichlorobenzoyl)-4-[1-methyl-2,4-dioxo-1,2,3,4-tetrahydro-3-(2H)pyrido[3,2-d]pyrimidinyl]-L-phenylalanine] | 15.7

The remaining lines, values ahead:

IC50 [nM] | Molecule
6.3 | Cn1c(=O)n(-c2ccc(C[C@H](NC(=O)c3c(Cl)cccc3Cl)C(=O)O)cc2)c(=O)c2cc(CNCC3CC3)ccc21 [Example 197]
9.4 | Cc1nccn1-c1cc2c(cc1F)c(=O)n(-c1ccc(C[C@H](NC(=O)c3c(Cl)cccc3Cl)C(=O)O)cc1)c(=O)n2C [Example 160]
12.9 | Cn1c(=O)n(-c2ccc(C[C@H](NC(=O)c3c(Cl)cccc3Cl)C(=O)O)cc2)c(=O)c2cc(CN)ccc21 [Example 191]
5.7 | CCC(C)NCc1ccc2c(c1)c(=O)n(-c1ccc(C[C@H](NC(=O)c3c(Cl)cccc3Cl)C(=O)O)cc1)c(=O)n2C (stereo partly drawn) [Example 198]
17.9 | Cn1c(=O)n(-c2ccc(C[C@H](NC(=O)c3c(Cl)cccc3Cl)C(=O)O)cc2)c(=O)c2cc(CNC3CC3)ccc21 [Example 192]
13.4 | CCNCCCc1ccc2c(c1)c(=O)n(-c1ccc(C[C@H](NC(=O)c3c(Cl)cccc3Cl)C(=O)O)cc1)c(=O)n2C [Example 208]
5.3 | CC(C)CCNCc1ccc2c(c1)c(=O)n(-c1ccc(C[C@H](NC(=O)c3c(Cl)cccc3Cl)C(=O)O)cc1)c(=O)n2C [Example 196]
6.9 | CC(C)NCc1ccc2c(c1)c(=O)n(-c1ccc(C[C@H](NC(=O)c3c(Cl)cccc3Cl)C(=O)O)cc1)c(=O)n2C [Example 194]
18 | CC(C)N(C)Cc1ccc2c(c1)c(=O)n(-c1ccc(C[C@H](NC(=O)c3c(Cl)cccc3Cl)C(=O)O)cc1)c(=O)n2C [Example 199]
14.7 | CNCCc1cc2c(=O)n(-c3ccc(C[C@H](NC(=O)c4c(Cl)cccc4Cl)C(=O)O)cc3)c(=O)n(C)c2cc1F [Example 229, N-(2,6-dichlorobenzoyl)-4-{7-fluoro-1-methyl-6-[2-(methylamino)ethyl]-2,4-dioxo-1,2,3,4-tetrahydroquinazoline-3(2H)-yl}-L-phenylalanine]
3.8 | CCCNCc1ccc2c(=O)n(-c3ccc(C[C@H](NC(=O)c4c(Cl)cccc4Cl)C(=O)O)cc3)c(=O)n(C)c2c1 [Example 145, N-(2,6-dichlorobenzoyl)-4-[1-methyl-7-propylaminomethyl-2,4-quinazoline-dione-3-yl]-L-phenylalanine]
4.9 | CNCc1ccc2c(=O)n(-c3ccc(C[C@H](NC(=O)c4c(Cl)cccc4Cl)C(=O)O)cc3)c(=O)n(C)c2c1 [Example 144, N-(2,6-dichlorobenzoyl)-4-[7-methylaminomethyl-1-methyl-2,4-quinazoline-dione-3-yl]-L-phenylalanine]
15.2 | CCCNCCCc1ccc2c(c1)c(=O)n(-c1ccc(C[C@H](NC(=O)c3c(Cl)cccc3Cl)C(=O)O)cc1)c(=O)n2C [Example 209]
16.5 | CCc1nccn1-c1cc2c(cc1F)c(=O)n(-c1ccc(C[C@H](NC(=O)c3c(Cl)cccc3Cl)C(=O)O)cc1)c(=O)n2C [Example 161]
7.9 | CCN(CC)Cc1ccc2c(=O)n(-c3ccc(C[C@H](NC(=O)c4c(Cl)cccc4Cl)C(=O)O)cc3)c(=O)n(C)c2c1 [Example 146, N-(2,6-dichlorobenzoyl)-4-[1-methyl-7-diethylaminomethyl-2,4-quinazoline-dione-3-yl]-L-phenylalanine]
